In patent publication US20080153858A1, “ANTITUMORIGENIC DRUG COMBINATION” (ABBOTT LABORATORIES, priority 2006, published 2008):
Marks after values point to notes of the source that are not given here.

Columns and labels:
[1] = system: Calu-6 NSCLC xenograft; assay: Calu-6 flank xenograft model, tumor growth delay; type: in vivo, nu/nu mice
Method: Female nu/nu mice (Charles River Labs.) were injected subcutaneously with 0.25 mL of 5×10^6 Calu-6 cells (1:1 with matrigel) on study day 0. The human Calu-6 cells were obtained from a tumor homogenate from previously inoculated donor mice. The cellular implantation site was the right thigh, and all mice were ear tagged. On day 10, tumors were size matched to approximately 170 mm^3 and were placed into the therapy groups outlined in the study design below. The tumors were measured with calipers 2-3 times per week after tumors were palpable. Tumor volume were calculated according to the formula V=L×W^2/2 (V: volume, mm^3; L: length, mm. W: width, mm). The mice were humanely euthanized when the tumor volumes reached a predetermined size. The study design was as follows:
ABT-751 was formulated in 1% HCl, 4% ethanol, and 95% D5W while pemetrexed was formulated in normal saline.
Study group treatments are defined in Table 1.

[2] = system: thymidine kinase minus human colon carcinoma xenograft (GC3 TK-); assay: GC3 TK- flank xenograft model, tumor growth delay; type: in vivo, nu/nu mice
Method: nu/nu female mice (Charles Rivers Labs) were injected subcutaneously with 0.2 mL of 5×10^6 GC3TK-100c3 cells (1:1 matrigel) on study day 0. […] The cellular implantation site was the right flank, and all mice were ear tagged. Tumors were size matched to 205 mm^3, and animals were placed into the therapy groups shown in the study design below (Table 3). The tumors were measured with calipers 2 times per week after tumors were palpable. The mice were humanely euthanized when the tumor volumes reached a predetermined size. The study design was as follows: [table]

[3] = system: thymidine kinase minus human colon carcinoma xenograft (GC3 TK-); details: Schultz, 1999; cited from earlier work

SMILES	Mean % TGD (tumor growth delay) increase compared to vehicle in time to 1.5 cc tumor ([1]; Group 1: ABT-751 100 mg/kg p.o. Days 10-14 and 20-24, plus pemetrexed vehicle)	Mean % TGD (tumor growth delay) increase compared to vehicle in time to 1.5 cc tumor ([1]; Group 6: ABT-751 100 mg/kg p.o. Days 15-19 and 25-29, plus pemetrexed vehicle)	Median % TGD (tumor growth delay) increase compared to vehicle in time to 0.75 cc tumor ([2]; Group 1: ABT-751 100 mg/kg p.o. Days 38-42 and 48-52, plus pemetrexed vehicle)	Mean % TGD (tumor growth delay) increase compared to vehicle in time to 1.5 cc tumor ([1]; Group 2: pemetrexed 150 mg/kg i.p. Days 10-14 and 20-24, plus ABT-751 vehicle)	Mean % TGD (tumor growth delay) increase compared to vehicle in time to 1.5 cc tumor ([1]; Group 4: pemetrexed 150 mg/kg i.p. Days 15-19 and 25-29, plus ABT-751 vehicle)	Median % TGD (tumor growth delay) increase compared to vehicle in time to 0.75 cc tumor ([2]; Group 2: pemetrexed 150 mg/kg i.p. Days 38-42, plus ABT-751 vehicle)	Median % TGD (tumor growth delay) increase compared to vehicle in time to 0.75 cc tumor ([2]; Group 3: pemetrexed 150 mg/kg i.p. Days 43-47, plus ABT-751 vehicle)	sensitivity in the thymidine kinase-deficient GC3 model [3]
COc1ccc(S(=O)(=O)Nc2cccnc2Nc2ccc(O)cc2)cc1 [ABT-751, N-(2-((4-Hydroxyphenyl)amino)pyridin-3-yl)-4-methoxybenzenesulfonamide]	18.0***^b %	18.0*** %	0.0%					
Nc1nc2[nH]cc(CCc3ccc(C(=O)N[C@@H](CCC(=O)O)C(=O)O)cc3)c2c(=O)[nH]1 [pemetrexed]				11.1** %	5.6* %	14.8%	30.7*^b %	quite sensitive
